Measured values from US6864251B2, “Treatment of LTB4-mediated inflammatory disorders with optically-pure (R)-2,3-benzodiazepines” (Vela Pharmaceuticals, Inc., priority 2002, dated 2005).
Several values for one entry are separate records, joined by “and”; a condition that tells them apart may be missing. Equal entries are not always repeated.

What was measured:
[1] = molecular target: LTB4 receptor (Cavia porcellus, UniProt H0VYV8); assay: LTB4 binding assay, displacement of [3H]LTB4, guinea pig spleen membrane
Protocol: Reactions were carried out in a phosphate buffer (pH 7.4) containing NaCl, MgCl2, EDTA, and bacitracin. The reaction volume of 150 μL containing 1.0 mg/mL of the Guinea pig spleen membrane preparation and 1 nM [^3H]LTB4, with or without a competitor, was incubated at 0-4° C. for 2 hours. Competitors included 2,3-benzodiazepines, and LTB4 as a control. The reaction was terminated by rapid vacuum filtration onto glass fiber filters. The filter was washed with cold buffer, dried and placed in a scintillation vial. Radioactivity trapped onto the filters was determined and compared to control values in order to ascertain any interactions of the test compound with the LTB4 binding site.

[2] = tested on: LTB4-induced dermal inflammation; assay: Rabbit model of LTB4-induced dermal inflammation, histopathology of intradermal challenge sites; type: in vivo, New Zealand White Rabbits; set-up: key to Inflammation score / Edema score: 0=normal; T=trace; 1=minimal; 2=mild; 3=moderate; 4=marked; details: test article IP 60 mg/kg (dexamethasone 0.5 mg/kg), 4 hr after challenge
Protocol: Test compounds were prepared as follows. The vehicle was first prepared by dissolving […] of hydroxypropylmethylcellulose 2910 (HPMC)(Sigma Chemical, St. Louis, Mo.) in 50 mL of 0.9% saline to yield a concentration of 2% HPMC. The three test articles, (R)-, (S)- and racemic tofisopam, were formulated by adding 1 g of each test article to 10 mL of vehicle.
On Day 0, the rabbits were sedated with ketamine/xylazine (35/5 mg/kg, s.c.) and an area of approximately 8×14 cm on the back was closely and carefully clipped to expose the skin, but not inflame or otherwise damage the epithelium. A grid of ten squares each approximately 2.5×2.5 cm was drawn on each animal's back using an indelible marker. The animals were then dosed intraperitoneally with the appropriate test article corresponding to the group. Thirty minutes after dosing with test or control article, the animals were challenged intradermally with the LTB4 or LTB4-aminopropamide (LTB4-AP, a synthetic LTB4 agonist) in the appropriate site as shown in Table 4. Each injection site was marked with an indelible marker in order to identify the exact location of the intradermal injection site. Sixty minutes after challenge, the animals were treated again with tofisopam or control articles. The animals were sacrificed 4 hrs. after challenge, and the intradermal injection sites were excised, fixed in 10% neutral buffered formalin (NBF), and submitted for histopathology. H&E-stained sections were read by a board-certified veterinary pathologist using light microscopy.
All animals were sacrificed 4 hr after challenge. The intradermal challenge sites were excised, placed on unique cardboard squares, fixed in 10% NBF, and submitted for histopathology. The skin sections included the epidermis and the subcutis, down to the back musculature.
The marked skin sections were fixed for at least 48 hours on small cardboard squares. At gross trimming, three levels were cut through marked skin region in order to assure that the injection sites is brought into the plane of section. The skins were gross trimmed, processed by dehydration, embedded in paraffin, sectioned at 3-5 μm, and stained with hematoxylin and eosin.
The tissues were evaluated histopathologically via light microscopy by a board-certified veterinary pathologist. Initially, the identity of the slides was masked in order to perform the initial evaluation and rank the slides. The slides were then unmasked and there was a careful assessment of the lesions and careful comparison of the tofisopam-treated sites to the vehicle and positive control tissues. The lesions were graded based upon the degree of inflammation and the degree of edema. The severity of the inflammation and edema was keyed as follows: 0=normal; T=trace; 1=minimal; 2=mild; 3=moderate; 4=marked.

Sequence of LTB4 receptor (H0VYV8 1-348): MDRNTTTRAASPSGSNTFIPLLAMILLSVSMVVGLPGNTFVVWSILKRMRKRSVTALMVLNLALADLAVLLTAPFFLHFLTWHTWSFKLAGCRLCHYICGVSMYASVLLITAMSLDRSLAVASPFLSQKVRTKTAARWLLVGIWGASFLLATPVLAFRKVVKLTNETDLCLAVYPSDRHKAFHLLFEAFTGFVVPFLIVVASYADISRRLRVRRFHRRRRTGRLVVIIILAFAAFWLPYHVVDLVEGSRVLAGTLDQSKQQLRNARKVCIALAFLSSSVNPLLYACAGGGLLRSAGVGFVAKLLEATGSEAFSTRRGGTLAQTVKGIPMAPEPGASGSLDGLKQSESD

| Ki [1] [nM] | Compound | Edema score ([2]; injection site: LTB4 500 ng) | Inflammation score ([2]; injection site: LTB4 500 ng) | Edema score ([2]; injection site: LTB4 1000 ng) | Inflammation score ([2]; injection site: LTB4 1000 ng) | Edema score ([2]; injection site: LTB4 2000 ng) | Edema score ([2]; injection site: LTB-ap 500 ng) | Inflammation score ([2]; injection site: LTB-ap 500 ng) | Edema score ([2]; injection site: LTB-ap 1000 ng) | Inflammation score ([2]; injection site: LTB-ap 1000 ng) | Edema score ([2]; injection site: LTB-ap 2000 ng) | Inflammation score ([2]; injection site: LTB-ap 2000 ng) | Edema score ([2]; injection site: Vehicle 0 ng) | Inflammation score ([2]; injection site: Vehicle 0 ng) |
| --- | --- | --- | --- | --- | --- | --- | --- | --- | --- | --- | --- | --- | --- | --- |
| 0.2 to 0.9 | CCCCC/C=C\C[C@@H](O)/C=C/C=C/C=C\[C@@H](O)CCCC(=O)O [LTB4, Leukotriene B4] |  |  |  |  |  |  |  |  |  |  |  |  |  |
|  | C[C@@H]1C[C@H]2[C@@H]3CCC4=CC(=O)C=C[C@]4(C)[C@@]3(F)[C@@H](O)C[C@]2(C)[C@@]1(O)C(=O)CO [dexamethasone] | 2 and 3 | 2 and 3 | 2 and 3 | 3 | 3 and 2 and 1 | 2 and 3 | 3 and 2 | 3 | 2 | 3 and 1 and 2 | 2 and 1 | 1 and 0 | 1 and 0 |
